Experiment [1] deals with DENV2. The experiment is described as follows: DENV2 replication in BHK-21 cells, viral RNA by qRT-PCR. It is filed as cell-based. The settings on record: for SI, selectivity index (CC50/IC50): DENV2, BHK-21 cells, qRT-PCR IC50; for IC50: Dengue virus, DENV2, BHK-21, read-out: IC50, reduction of DENV2 viral RNA. The protocol:
First, cytotoxic impact of these compounds was evaluated using MTT assay. […] Subsequently, we evaluated the effectiveness of these compounds in inhibiting DENV2 replication. BHK-21 cells were infected with the virus in presence of increasing concentration of these compounds, and harvested at 24 hpi. The virus replication rate was assessed by quantifying the copy number of viral genomic RNA using quantitative real-time PCR (qRT-PCR).
(§1) BHK-21 cells were seeded in a 24-well cell culture plate at a density of (0.25 × 10^6 cells/well) with regular growth medium containing DMEM + 10% FBS 1 day prior to infection in triplicate. Once the cells reached 85%–90% confluence, they were infected with DENV2 and JEV virus inoculum comprising DMEM + 2% FBS and 10 µM of the compound at an MOI of 0.1. Cells were incubated for 1.5 h at 37 °C with the virus-compound inoculum, with gentle rocking every 10 min to ensure even coverage and prevent the cellular monolayer from drying. Finally, the inoculum was replenished with fresh culture media comprising DMEM + 2% FBS and the compound, and then kept in an incubator in a humidified chamber at 37 °C until harvest (18 h). The cell culture supernatant was aspirated and washed with PBS, and the cellular monolayer was used for viral RNA isolation.
(§2) Total cellular RNA was extracted from BHK-21 cells using TRIzol reagent, according to the manufacturer’s instructions (Ambion Life Technologies, USA). RNA quantity and integrity were determined prior to use on a NanoDrop spectrophotometer (Thermo Fisher Scientific). Then, 1 µg of total RNA from each experimental sample was used to synthesize cDNA by reverse transcriptase (RT) by incubating the RNAs with Moloney murine leukemia virus (M-MuLV) RT, with specific RT primer, 5′-[…]-3′ (Tm = 63 °C), and deoxynucleoside triphosphates (dNTPs) (New England Biolabs) at 42 °C for 50 min, followed by inactivation at 70 °C for 15 min.
To quantify the viral RNA copy number, quantitative RT-PCR (qRT-PCR) was performed in duplicate using iTaq Universal SYBR Green Supermix (Bio-Rad). The cDNAs used for qPCR analysis were prepared using Power SYBR Green PCR Master Mix (Bio-Rad, #172–5125) in a QuantStudio5 Applied Biosystems real-time PCR system. For qPCR amplification of the JEV amplicon size of 202 bp, the sequences of the forward and reverse primer pairs used were 5′-[…]-3′ (Tm = 65 °C) and 5′-[…]-3′ (Tm = 63 °C) and for DENV amplicon of 163 bp, the sequences of the forward and reverse primer pair used were 5′-[…]-3′ (Tm = 61 °C) and 5′-[…]-3′ (Tm = 59 °C). […] Delta Ct for both control and compound-treated samples was determined and subsequently analyzed by determining the delta Ct to determine the mRNA expression of target genes in control vs treated samples.
On the technique in general: In qPCR the cycle at which signal appears reflects the starting amount.

The test system of experiment [2] is JEV. The experiment can be described thus: JEV replication in BHK-21 cells, viral RNA by qRT-PCR. It is filed as cell-based. The settings on record: for IC50: BHK-21, 24 h, read-out: IC50, reduction of JEV viral RNA. The protocol: Therefore, we sought to evaluate the efficacy of these compounds against JEV to assess their broad-spectrum anti-viral action against flaviviruses.
as §1, with “Finally, the inoculum was replenished with fresh culture media comprising DMEM + 2% FBS and the compound, and then kept in an incubator in a humidified chamber at 37 °C until harvest (18 h).” left out
as §2
To quantify the viral RNA copy number, quantitative RT-PCR (qRT-PCR) was performed in duplicate using iTaq Universal SYBR Green Supermix (Bio-Rad). The cDNAs used for qPCR analysis were prepared using Power SYBR Green PCR Master Mix (Bio-Rad, #172–5125) in a QuantStudio5 Applied Biosystems real-time PCR system. […] Delta Ct for both control and compound-treated samples was determined and subsequently analyzed by determining the delta Ct to determine the mRNA expression of target genes in control vs treated samples.

The values below come from PMC11963559, “Identification of novel thiazole derivatives as flaviviral protease inhibitors effective against Dengue (DENV2) and Japanese encephalitis viruses” (Antimicrobial Agents and Chemotherapy, 2025).

Usually IC50 stands for the concentration needed to halve the response being measured.

In the case of `COc1ccc(-c2csc(N/N=C(\C)c3ccc(O)cc3)n2)cc1` [3aq], in experiment [1], the “SI, selectivity index (CC50/IC50)” value was 18.35 and the IC50 turned out to be 4.47 ± 0.41 µM. The IC50 in experiment [2] stood at 1.03 ± 0.21 µM.

Take `COc1ccc(-c2csc(N/N=C(\C)c3cc(O)cc(O)c3)n2)cc1` [3au]: the “SI, selectivity index (CC50/IC50)” value in experiment [1] stood at 10.38; in experiment [2] (JEV, BHK-21 cells, qRT-PCR IC50), 67.8. Also, the half-maximal inhibitory concentration (IC50) in experiment [1] came to 7.38 ± 0.6 µM; in experiment [2] it was 1.16 ± 0.16 µM.
